Laboratory results as given in patent US6825170B2, “6-O-acyl ketolide antibacterials” (Ortho-McNeil Pharmaceutical, Inc., priority 2001, dated 2004).
≈ marks a conversion by molar mass, not a printed value.

Tests used:
Experiment in all cases: MIC, microdilution broth method (NCCLS)
Type in all cases: cell-based
Details in all cases: 35° C., 16-20 hours
S. pneumoniae ATCC49619 = tested on: S. pneumoniae ATCC49619
Experimental: (§1) Minimal inhibitory concentration (MIC) has been an indicator of in vitro antibacterial activity widely used in the art. The in vitro antimicrobial activity of the compounds was determined by the microdilution broth method following the test method from the National Committee for Clinical Laboratory Standards (NCCLS). This method is described in the NCCLS Document M7-A4, Vol.17, No.2, “Methods for Dilution Antimicrobial Susceptibility Test for Bacteria that Grow Aerobically—Fourth Edition”, which is incorporated herein by reference.
(§2) In this method two-fold serial dilutions of drug in cation adjusted Mueller-Hinton broth are added to wells in microdilution trays. The test organisms are prepared by adjusting the turbidity of actively growing broth cultures so that the final concentration of test organism after it is added to the wells is approximately 5×10^4 CFU/well.
(§3) Following inoculation of the microdilution trays, the trays are incubated at 35° C. for 16-20 hours and then read. […] The amount of growth in the wells containing the test compound is compared with the amount of growth in the growth-control wells (no test compound) used in each tray. As set forth in Table 1, compounds of the present invention were tested against a variety of Gram positive and Gram negative pathogenic bacteria resulting in a range of activities depending on the organism tested.

E. faecalis ATCC29212 = tested on: E. faecalis ATCC29212
Experimental: as §1, §2, §3

S. aureus ATCC29213 = tested on: S. aureus ATCC29213
Experimental: as §1, §2, §3

Structure (SMILES): CCC1OC(=O)C(C)C(=O)C(C)C(OC2OC(C)CC(N(C)C)C2O)C(C)(OC(=O)OCC=Cc2ccc3ncccc3c2)CC(C)C(=O)C(C)C2NC(=O)OC12C (stereo not drawn) [Compound 40]
- MIC (D: S. pneumoniae ATCC49619) (S. pneumoniae ATCC49619): 0.06 µg/mL (≈ 0.0741 µM)
- MIC (C: E. faecalis ATCC29212) (E. faecalis ATCC29212): 0.06 µg/mL (≈ 0.0741 µM)
- MIC (B: S. aureus ATCC29213) (S. aureus ATCC29213): 0.12 µg/mL (≈ 0.148 µM)

Structure (SMILES): CCC1OC(=O)C(C)C(=O)C(C)C(OC2OC(C)CC(N(C)C)C2O)C(C)(OC(=O)OCCCc2ccc(-c3ncccn3)cc2)CC(C)C(=O)C(C)C2NC(=O)OC12C (stereo not drawn) [Compound 139]
- MIC (D: S. pneumoniae ATCC49619) (S. pneumoniae ATCC49619): 0.12 µg/mL (≈ 0.143 µM)
- MIC (C: E. faecalis ATCC29212) (E. faecalis ATCC29212): 0.06 µg/mL (≈ 0.0715 µM)
- MIC (B: S. aureus ATCC29213) (S. aureus ATCC29213): 0.12 µg/mL (≈ 0.143 µM)

Structure (SMILES): CC[C@H]1OC(=O)[C@H](C)C(=O)[C@H](C)[C@@H](O[C@@H]2O[C@H](C)C[C@H](N(C)C)[C@H]2O)[C@](C)(OC(=O)NOC/C=C/c2cccc(-c3ncccn3)c2)C[C@@H](C)C(=O)[C@H](C)[C@H]2NC(=O)O[C@@]21C [Compound 616]
- MIC (D: S. pneumoniae ATCC49619) (S. pneumoniae ATCC49619): 0.06 µg/mL (≈ 0.0704 µM)
- MIC (C: E. faecalis ATCC29212) (E. faecalis ATCC29212): 0.25 µg/mL (≈ 0.293 µM)
- MIC (B: S. aureus ATCC29213) (S. aureus ATCC29213): 0.5 µg/mL (≈ 0.587 µM)

Structure (SMILES): CCC1OC(=O)C(C)C(=O)C(C)C(OC2OC(C)CC(N(C)C)C2O)C(C)(OC(=O)NOCC#Cc2ccc(-c3ncccn3)cc2)CC(C)C(=O)C(C)C2NC(=O)OC12C (stereo not drawn) [Compound 602]
- MIC (D: S. pneumoniae ATCC49619) (S. pneumoniae ATCC49619): 0.03 µg/mL (≈ 0.0353 µM)
- MIC (C: E. faecalis ATCC29212) (E. faecalis ATCC29212): 0.12 µg/mL (≈ 0.141 µM)
- MIC (B: S. aureus ATCC29213) (S. aureus ATCC29213): 0.25 µg/mL (≈ 0.294 µM)

Structure (SMILES): CCC1OC(=O)C(C)C(=O)C(C)C(OC2OC(C)CC(N(C)C)C2O)C(C)(OC(=O)OCC=Cc2ccc(-n3cccn3)cc2)CC(C)C(=O)C(C)C2NC(=O)OC12C (stereo not drawn) [Compound 21]
- MIC (D: S. pneumoniae ATCC49619) (S. pneumoniae ATCC49619): ≦0.015 μg/mL
- MIC (C: E. faecalis ATCC29212) (E. faecalis ATCC29212): 0.06 µg/mL (≈ 0.0727 µM)
- MIC (B: S. aureus ATCC29213) (S. aureus ATCC29213): 0.12 µg/mL (≈ 0.145 µM)

Structure (SMILES): CC[C@H]1OC(=O)[C@H](C)C(=O)[C@H](C)[C@@H](O[C@@H]2O[C@H](C)C[C@H](N(C)C)[C@H]2O)[C@](C)(OC(=O)NOC/C=C/c2cccnc2)C[C@@H](C)C(=O)[C@H](C)[C@H]2NC(=O)O[C@@]21C [Compound 615]
- MIC (D: S. pneumoniae ATCC49619) (S. pneumoniae ATCC49619): 0.06 µg/mL (≈ 0.0774 µM)
- MIC (C: E. faecalis ATCC29212) (E. faecalis ATCC29212): 0.25 µg/mL (≈ 0.323 µM)
- MIC (B: S. aureus ATCC29213) (S. aureus ATCC29213): 1 µg/mL (≈ 1.29 µM)

Structure (SMILES): CCC1OC(=O)C(C)C(=O)C(C)C(OC2OC(C)CC(N(C)C)C2O)C(C)(OC(=O)NOCC=Cc2ccc(-c3cccnn3)cc2)CC(C)C(=O)C(C)C2NC(=O)OC12C (stereo not drawn) [Compound 607]
- MIC (D: S. pneumoniae ATCC49619) (S. pneumoniae ATCC49619): 0.03 µg/mL (≈ 0.0352 µM)
- MIC (C: E. faecalis ATCC29212) (E. faecalis ATCC29212): 0.25 µg/mL (≈ 0.293 µM)
- MIC (B: S. aureus ATCC29213) (S. aureus ATCC29213): 0.25 µg/mL (≈ 0.293 µM)

Structure (SMILES): CCC1OC(=O)C(C)C(=O)C(C)C(OC2OC(C)CC(N(C)C)C2O)C(C)(OC(=O)OCC=Cc2ccc(-c3cnccn3)cc2)CC(C)C(=O)C(C)C2NC(=O)OC12C (stereo not drawn) [Compound 19]
- MIC (D: S. pneumoniae ATCC49619) (S. pneumoniae ATCC49619): ≦0.015 μg/mL
- MIC (C: E. faecalis ATCC29212) (E. faecalis ATCC29212): 0.06 µg/mL (≈ 0.0717 µM)
- MIC (B: S. aureus ATCC29213) (S. aureus ATCC29213): 0.12 µg/mL (≈ 0.143 µM)

Structure (SMILES): CC[C@H]1OC(=O)[C@H](C)C(=O)[C@H](C)[C@@H](O[C@@H]2O[C@H](C)C[C@H](N(C)C)[C@H]2O)[C@](C)(OC(=O)NOC/C=C/c2ccc(-c3ccccn3)cc2)C[C@@H](C)C(=O)[C@H](C)[C@H]2NC(=O)O[C@@]21C [Compound 617]
- MIC (D: S. pneumoniae ATCC49619) (S. pneumoniae ATCC49619): 0.03 µg/mL (≈ 0.0353 µM)
- MIC (C: E. faecalis ATCC29212) (E. faecalis ATCC29212): 0.12 µg/mL (≈ 0.141 µM)
- MIC (B: S. aureus ATCC29213) (S. aureus ATCC29213): 0.25 µg/mL (≈ 0.294 µM)

Structure (SMILES): CC[C@H]1OC(=O)[C@H](C)C(=O)[C@H](C)[C@@H](O[C@@H]2O[C@H](C)C[C@H](N(C)C)[C@H]2O)[C@](C)(OC(=O)N(C)OCCc2ccc(-c3ncccn3)cc2)C[C@@H](C)C(=O)[C@H](C)[C@H]2NC(=O)O[C@@]21C [Compound 621]
- MIC (D: S. pneumoniae ATCC49619) (S. pneumoniae ATCC49619): 0.12 µg/mL (≈ 0.141 µM)
- MIC (C: E. faecalis ATCC29212) (E. faecalis ATCC29212): 0.25 µg/mL (≈ 0.293 µM)
- MIC (B: S. aureus ATCC29213) (S. aureus ATCC29213): 1 µg/mL (≈ 1.17 µM)
